Test [1] deals with Mitogen-activated protein kinase 7 (Homo sapiens) (UniProt Q13164). The experiment in a line: Inhibition of ERK5 (unknown origin) at 1 uM by Ambit Kinomescan binding assay relative to control.
Test [2] has as its target T1, Serine/threonine-protein kinase Nek1 (Homo sapiens) (UniProt Q96PY6).
T1 sequence (whole entry): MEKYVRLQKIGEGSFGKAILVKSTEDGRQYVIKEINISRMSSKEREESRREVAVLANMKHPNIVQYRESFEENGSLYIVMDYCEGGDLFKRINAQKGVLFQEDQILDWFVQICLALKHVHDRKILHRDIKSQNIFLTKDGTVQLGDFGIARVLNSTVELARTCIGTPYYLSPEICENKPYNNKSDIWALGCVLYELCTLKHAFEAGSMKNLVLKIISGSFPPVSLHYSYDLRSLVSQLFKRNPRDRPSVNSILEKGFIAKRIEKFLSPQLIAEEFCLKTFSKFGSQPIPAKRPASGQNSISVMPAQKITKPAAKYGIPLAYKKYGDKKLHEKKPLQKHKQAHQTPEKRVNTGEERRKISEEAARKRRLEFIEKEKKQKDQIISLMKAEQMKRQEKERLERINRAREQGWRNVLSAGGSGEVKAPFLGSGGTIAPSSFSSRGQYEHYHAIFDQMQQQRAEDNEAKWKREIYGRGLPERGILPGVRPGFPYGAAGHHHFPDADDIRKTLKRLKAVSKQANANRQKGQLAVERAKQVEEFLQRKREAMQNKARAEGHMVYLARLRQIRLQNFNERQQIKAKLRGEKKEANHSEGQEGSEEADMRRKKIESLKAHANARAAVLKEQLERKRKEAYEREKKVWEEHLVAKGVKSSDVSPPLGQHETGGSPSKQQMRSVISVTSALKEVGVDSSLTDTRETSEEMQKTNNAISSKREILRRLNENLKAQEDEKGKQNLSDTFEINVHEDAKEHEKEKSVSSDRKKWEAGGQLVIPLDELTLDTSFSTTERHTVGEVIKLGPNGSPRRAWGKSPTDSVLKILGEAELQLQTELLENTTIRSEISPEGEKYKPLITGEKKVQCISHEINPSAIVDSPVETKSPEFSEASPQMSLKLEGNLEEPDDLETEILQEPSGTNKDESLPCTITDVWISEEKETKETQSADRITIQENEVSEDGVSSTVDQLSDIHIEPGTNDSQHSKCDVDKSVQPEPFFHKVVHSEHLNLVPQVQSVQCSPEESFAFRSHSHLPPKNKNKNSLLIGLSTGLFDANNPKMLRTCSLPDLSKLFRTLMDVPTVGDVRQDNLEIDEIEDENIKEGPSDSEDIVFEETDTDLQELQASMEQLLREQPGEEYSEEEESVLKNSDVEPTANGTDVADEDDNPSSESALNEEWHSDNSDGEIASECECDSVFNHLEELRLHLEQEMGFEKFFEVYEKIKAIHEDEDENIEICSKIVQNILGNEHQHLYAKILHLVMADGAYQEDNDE
The experiment in a line: Inhibition of NEK1 K2 labeling site in human Huh-7 cells at 10 uM by KiNativ Profiling analysis relative to control. Format: cell-based.

The target of test [3] is Calcium/calmodulin-dependent protein kinase type II subunit gamma (Homo sapiens) (UniProt Q13555). Briefly: Inhibition of CAMK2G (unknown origin) at 10 uM by Ambit Kinomescan binding assay.
The target of test [4] is Mitogen-activated protein kinase 1 (Homo sapiens) (UniProt P28482). The experiment in a line: Inhibition of ERK2 (unknown origin) at 10 uM by Ambit Kinomescan binding assay.
Test [5] addresses Rho-associated protein kinase 1 (Homo sapiens) (UniProt Q13464). The experiment in a line: Inhibition of ROCK1 in human Huh-7 cells at 10 uM by KiNativ Profiling analysis relative to control. The format is cell-based.
Test [6] has as its target c-Jun N-terminal kinase, JNK (Homo sapiens) (UniProt P45983+P53779+P45984). The experiment in a line: Inhibition of JNK1/2/3 K2 labeling site in human Huh-7 cells at 10 uM by KiNativ Profiling analysis relative to control. Format: cell-based.
Test [7] addresses T2, EKC/KEOPS complex subunit TP53RK (Homo sapiens) (UniProt Q96S44).
T2 sequence (whole entry): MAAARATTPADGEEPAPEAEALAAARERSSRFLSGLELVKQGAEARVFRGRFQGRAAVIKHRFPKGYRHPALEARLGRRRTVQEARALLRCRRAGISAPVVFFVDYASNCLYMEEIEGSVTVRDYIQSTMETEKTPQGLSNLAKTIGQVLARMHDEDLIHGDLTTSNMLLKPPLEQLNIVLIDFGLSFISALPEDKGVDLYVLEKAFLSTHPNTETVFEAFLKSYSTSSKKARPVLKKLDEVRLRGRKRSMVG
The experiment in a line: Inhibition of PRPK ATP Loop labeling site in human Huh-7 cells at 1 uM by KiNativ Profiling analysis relative to control. The format is cell-based.

Test [8] can be described thus: Inhibition of KHS1 Lys1 labeling site in human Huh-7 cells at 1 uM by KiNativ Profiling analysis relative to control. Conditions: condition cancer.
Test [9] has as its target T3, Scaffold protein ILK (Homo sapiens) (UniProt Q13418).
T3 sequence (whole entry): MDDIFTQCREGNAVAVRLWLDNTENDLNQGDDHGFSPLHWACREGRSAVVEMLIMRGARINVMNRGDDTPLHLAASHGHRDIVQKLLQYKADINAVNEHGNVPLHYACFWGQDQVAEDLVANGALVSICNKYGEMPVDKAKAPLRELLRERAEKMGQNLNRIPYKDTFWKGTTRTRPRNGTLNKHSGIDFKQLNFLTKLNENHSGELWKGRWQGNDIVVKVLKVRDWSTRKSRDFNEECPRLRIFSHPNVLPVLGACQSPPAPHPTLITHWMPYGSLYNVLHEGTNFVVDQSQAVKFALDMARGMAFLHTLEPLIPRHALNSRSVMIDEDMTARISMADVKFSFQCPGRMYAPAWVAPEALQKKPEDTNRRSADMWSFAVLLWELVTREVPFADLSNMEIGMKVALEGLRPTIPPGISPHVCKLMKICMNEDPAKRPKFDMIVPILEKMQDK
Briefly: Inhibition of ILK Protein Kinase Domain labeling site in human Huh-7 cell lysate at 1 uM by KiNativ Profiling analysis relative to control. The format is subcellular.

Structures are written as SMILES. Calls of active or inactive are those of the source. No cut-off for these calls is given here.

Chain of Mitogen-activated protein kinase 1 (Homo sapiens) (P28482 whole entry): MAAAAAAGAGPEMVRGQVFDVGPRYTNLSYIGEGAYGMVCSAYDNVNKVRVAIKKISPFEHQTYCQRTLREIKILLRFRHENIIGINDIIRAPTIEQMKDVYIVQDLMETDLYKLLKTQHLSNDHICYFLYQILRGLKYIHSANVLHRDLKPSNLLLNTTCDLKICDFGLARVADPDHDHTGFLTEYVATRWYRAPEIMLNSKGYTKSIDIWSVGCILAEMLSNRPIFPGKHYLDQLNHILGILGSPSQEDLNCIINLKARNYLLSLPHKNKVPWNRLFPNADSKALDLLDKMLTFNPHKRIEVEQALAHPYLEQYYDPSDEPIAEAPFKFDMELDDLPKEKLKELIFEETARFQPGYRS
Chain of Mitogen-activated protein kinase 7 (Homo sapiens) (Q13164 2-816 limits assumed): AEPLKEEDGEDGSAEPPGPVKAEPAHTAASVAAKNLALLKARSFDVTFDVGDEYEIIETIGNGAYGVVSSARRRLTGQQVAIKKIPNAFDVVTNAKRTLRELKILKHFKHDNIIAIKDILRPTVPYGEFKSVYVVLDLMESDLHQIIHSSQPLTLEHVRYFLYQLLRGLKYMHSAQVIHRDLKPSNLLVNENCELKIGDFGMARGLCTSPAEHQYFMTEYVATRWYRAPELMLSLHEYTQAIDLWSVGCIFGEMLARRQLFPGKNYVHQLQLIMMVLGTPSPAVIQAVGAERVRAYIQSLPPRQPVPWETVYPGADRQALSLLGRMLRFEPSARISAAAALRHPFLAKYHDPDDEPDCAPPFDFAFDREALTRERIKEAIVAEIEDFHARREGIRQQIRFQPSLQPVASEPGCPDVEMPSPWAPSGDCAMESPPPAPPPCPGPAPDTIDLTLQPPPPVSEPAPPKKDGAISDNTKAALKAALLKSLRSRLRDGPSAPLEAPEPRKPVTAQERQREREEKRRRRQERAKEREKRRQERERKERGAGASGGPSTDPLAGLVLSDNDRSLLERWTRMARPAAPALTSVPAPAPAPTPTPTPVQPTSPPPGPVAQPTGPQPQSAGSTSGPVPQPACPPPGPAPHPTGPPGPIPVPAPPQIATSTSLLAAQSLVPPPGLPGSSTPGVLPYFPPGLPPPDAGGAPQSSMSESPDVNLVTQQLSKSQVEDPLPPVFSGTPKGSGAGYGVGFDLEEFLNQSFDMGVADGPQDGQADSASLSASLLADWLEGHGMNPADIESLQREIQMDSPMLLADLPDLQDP
Chain of Calcium/calmodulin-dependent protein kinase type II subunit gamma (Homo sapiens) (Q13555 whole entry): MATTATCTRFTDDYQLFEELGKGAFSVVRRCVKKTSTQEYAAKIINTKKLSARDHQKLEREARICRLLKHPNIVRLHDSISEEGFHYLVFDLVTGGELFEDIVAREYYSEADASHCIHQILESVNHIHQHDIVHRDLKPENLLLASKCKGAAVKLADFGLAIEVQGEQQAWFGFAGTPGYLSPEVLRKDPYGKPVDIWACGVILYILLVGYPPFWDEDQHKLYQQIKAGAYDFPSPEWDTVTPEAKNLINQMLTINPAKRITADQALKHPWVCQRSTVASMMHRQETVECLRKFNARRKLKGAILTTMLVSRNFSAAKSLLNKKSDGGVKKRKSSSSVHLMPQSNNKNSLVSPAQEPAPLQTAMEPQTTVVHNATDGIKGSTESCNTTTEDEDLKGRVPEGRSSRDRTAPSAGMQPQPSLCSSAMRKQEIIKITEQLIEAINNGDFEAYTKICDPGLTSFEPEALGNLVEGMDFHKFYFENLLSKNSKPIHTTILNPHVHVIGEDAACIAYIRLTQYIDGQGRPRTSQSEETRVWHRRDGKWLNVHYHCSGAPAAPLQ
Chain of Rho-associated protein kinase 1 (Homo sapiens) (Q13464 2-1354 limits assumed): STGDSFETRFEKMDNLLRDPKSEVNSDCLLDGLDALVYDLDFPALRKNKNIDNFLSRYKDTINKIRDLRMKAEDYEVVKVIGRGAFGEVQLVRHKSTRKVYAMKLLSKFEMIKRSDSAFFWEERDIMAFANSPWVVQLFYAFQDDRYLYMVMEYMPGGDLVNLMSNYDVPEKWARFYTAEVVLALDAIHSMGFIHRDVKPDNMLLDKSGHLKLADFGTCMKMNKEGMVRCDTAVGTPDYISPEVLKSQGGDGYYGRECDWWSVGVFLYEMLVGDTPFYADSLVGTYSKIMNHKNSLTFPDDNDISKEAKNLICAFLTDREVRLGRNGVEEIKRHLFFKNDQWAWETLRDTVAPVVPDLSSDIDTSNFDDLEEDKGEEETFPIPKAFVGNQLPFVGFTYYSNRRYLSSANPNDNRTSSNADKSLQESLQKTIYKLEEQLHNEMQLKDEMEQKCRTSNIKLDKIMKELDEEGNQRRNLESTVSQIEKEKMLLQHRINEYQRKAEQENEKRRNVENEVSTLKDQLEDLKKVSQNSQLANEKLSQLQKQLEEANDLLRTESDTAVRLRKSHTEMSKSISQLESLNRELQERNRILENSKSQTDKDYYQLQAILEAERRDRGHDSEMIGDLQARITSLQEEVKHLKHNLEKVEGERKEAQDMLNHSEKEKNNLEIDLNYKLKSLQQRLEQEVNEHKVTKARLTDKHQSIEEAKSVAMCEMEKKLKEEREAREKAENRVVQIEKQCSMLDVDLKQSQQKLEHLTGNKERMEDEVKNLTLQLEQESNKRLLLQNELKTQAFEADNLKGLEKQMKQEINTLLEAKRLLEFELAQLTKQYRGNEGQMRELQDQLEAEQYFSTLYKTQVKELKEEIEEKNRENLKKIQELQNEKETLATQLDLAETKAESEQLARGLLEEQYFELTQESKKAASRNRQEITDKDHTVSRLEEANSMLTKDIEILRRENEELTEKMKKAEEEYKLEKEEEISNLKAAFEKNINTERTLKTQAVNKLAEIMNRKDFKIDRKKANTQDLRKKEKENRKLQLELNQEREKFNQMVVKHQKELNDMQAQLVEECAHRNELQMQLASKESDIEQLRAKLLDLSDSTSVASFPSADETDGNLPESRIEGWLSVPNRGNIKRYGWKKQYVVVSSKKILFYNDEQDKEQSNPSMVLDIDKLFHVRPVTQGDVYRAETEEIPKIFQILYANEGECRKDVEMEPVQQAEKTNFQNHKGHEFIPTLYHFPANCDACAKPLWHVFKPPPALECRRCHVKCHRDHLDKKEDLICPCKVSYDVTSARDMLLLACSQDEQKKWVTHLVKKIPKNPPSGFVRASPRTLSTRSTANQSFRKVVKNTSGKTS

The term inhibition denotes the relative decrease from the control value, in per cent. In the case of `CCN1CCN(Cc2ccc(NC(=O)c3ccc(C)c(/C=C/c4cnc5[nH]ccc5c4OC)c3)cc2C(F)(F)F)CC1`, the inhibition in test [1] was 83%.

`CCN1CCN(Cc2ccc(NC(=O)c3ccc(C)c(Oc4ccnc5[nH]ccc45)c3)cc2C(F)(F)F)CC1`: the inhibition in test [2] was -4.4%; in test [5], 7.5%; in test [6], 60.1%. Besides, the inhibition entry in test [3] and in [4] was “inactive” in each case.

As for `CNc1cc(Oc2cc(C(=O)Nc3cc(N4CCN(C)CC4)cc(C(F)(F)F)c3)ccc2C)ncn1`, the figures for the inhibition in test [7] and in test [9] were 22.9% and -2.4%, respectively. Also, the inhibition at 1 µM in test [8] is -10.3%.

Source of the values: ChEMBL document CHEMBL5696442, “Discovery of type II inhibitors of TGFβ-activated kinase 1 (TAK1) and mitogen-activated protein kinase kinase kinase kinase 2 (MAP4K2)” (J Med Chem, 2015).
